According to paper PMC7377239, “Cardiovascular Effects of Polychlorinated Biphenyls and Their Major Metabolites” (Environmental Health Perspectives, 2020):
Counter-ions that a name gives are not always drawn. Like-named read-outs stand apart in the source and are kept apart here.

Legend:
HUVECs = experiment: Tube formation (tubulogenesis) assay in HUVECs, 18 h; assay type: cell-based, human; settings: Homo sapiens, HUVEC, 18 h; for activity at 0.1 µM: 0.10 µM
Outline: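 HUVECs (passage 1–5) seeded on reduced-growth-factor basement membrane and exposed to compounds overnight at 37°C, 5% CO2, in 2× maintenance medium with 12.5 ng/mL VEGF; 0.5% DMSO vehicle. Calcein AM-stained tube networks imaged and analysed; vehicle-normalized readouts fit to four-parameter logistic, POD set at one SD of vehicle means.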

[1] = tested on: iCell endothelial cells (human iPSC-derived ECs); experiment: High-content imaging cytotoxicity in iCell endothelial cells, 24 h; assay type: cell-based; settings: Homo sapiens, Endothelial cell, 24 hr; for viability at 0.1 µM / activity at 0.1 µM: 0.10 µM
Outline: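 Human iPSC-derived endothelial cells (passages 1–5) were grown to a fibronectin-coated monolayer, then exposed 24 h at 37 °C with 0.5% DMSO vehicle. Staining was Hoechst 33342, MitoTracker Orange and calcein AM, read by high-content imaging. Point of departure came from 4-parameter logistic fits, with a 1-SD vehicle cutoff and 100 µM as the top concentration.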

[2] = HUVECs, 0.00 µM = 100.00, read-out: huvec.mtl.18hr
[3] = HUVECs, 0.00 µM = 100.00, read-out: huvec.tlps.18hr
[4] = HUVECs, 0.00 µM = 100.00, read-out: huvec.tta.18hr
[5] = HUVECs, 0.00 µM = 100.00, read-out: huvec.ttl.18hr
[6] = iPSC-EC, 0.00 µM control = 100.00, read-out: endo.cyto.24hr
[7] = iPSC-EC, 0.00 µM control = 100.00, read-out: endo.mito.24hr
[8] = iPSC-EC, 0.00 µM control = 100.00, read-out: endo.mitoint.24hr
[9] = iPSC-EC, 0.00 µM control = 100.00, read-out: endo.nma.24hr
[10] = iPSC-EC, 0.00 µM control = 100.00, read-out: endo.tc.24hrs

O=S(=O)(O)Oc1ccc(-c2cccc(Cl)c2)cc1Cl [4-yl PCB 11 sulfate]
activity at 0.01 µM (HUVECs; [2]): 96.8% | activity at 0.01 µM (HUVECs; [3]): 110% | activity at 0.01 µM (HUVECs; [4]): 98.3% | activity at 0.01 µM (HUVECs; [5]): 87.1% | activity at 0.1 µM (HUVECs; [2]): 112% | activity at 0.1 µM (HUVECs; [3]): 133% | activity at 0.1 µM (HUVECs; [4]): 109% | activity at 0.1 µM (HUVECs; [5]): 98.7% | activity at 1 µM (HUVECs; [2]): 108% | activity at 1 µM (HUVECs; [3]): 110% | activity at 1 µM (HUVECs; [4]): 123% | activity at 1 µM (HUVECs; [5]): 113% | activity at 10 µM (HUVECs; [2]): 95% | activity at 10 µM (HUVECs; [3]): 103% | activity at 10 µM (HUVECs; [4]): 84.6% | activity at 10 µM (HUVECs; [5]): 77% | activity at 100 µM (HUVECs; [2]): 52.2% | activity at 100 µM (HUVECs; [3]): 35.8% | activity at 100 µM (HUVECs; [4]): 50.9% | activity at 100 µM (HUVECs; [5]): 56.1% | minimal effective concentration (HUVECs; HUVECs, top concentration 100.00 µM, read-out: huvec.mtl.18hr POD): 14.3 µM | minimal effective concentration (HUVECs; HUVECs, top concentration 100.00 µM, read-out: huvec.tlps.18hr POD): 27.2 µM | minimal effective concentration (HUVECs; HUVECs, top concentration 100.00 µM, read-out: huvec.tta.18hr POD): 100 µM | minimal effective concentration (HUVECs; HUVECs, top concentration 100.00 µM, read-out: huvec.ttl.18hr POD): 100 µM | viability at 0.01 µM [1, 6]: 96.1% | activity at 0.01 µM [1, 7]: 96.2% | activity at 0.01 µM [1, 8]: 99.7% | activity at 0.01 µM [1, 9]: 103% | viability at 0.01 µM [1, 10]: 96.1% | viability at 0.1 µM [1, 6]: 102% | activity at 0.1 µM [1, 7]: 101% | activity at 0.1 µM [1, 8]: 90.5% | activity at 0.1 µM [1, 9]: 102% | viability at 0.1 µM [1, 10]: 102% | viability at 1 µM [1, 6]: 98% | activity at 1 µM [1, 7]: 97.8% | activity at 1 µM [1, 8]: 90.8% | activity at 1 µM [1, 9]: 103% | viability at 1 µM [1, 10]: 98% | viability at 10 µM [1, 6]: 104% | activity at 10 µM [1, 7]: 104% | activity at 10 µM [1, 8]: 87.3% | activity at 10 µM [1, 9]: 98.8% | viability at 10 µM [1, 10]: 104% | viability at 100 µM [1, 6]: 98.5% | activity at 100 µM [1, 7]: 98.6% | activity at 100 µM [1, 8]: 84.2% | activity at 100 µM [1, 9]: 99.3% | viability at 100 µM [1, 10]: 98.5% | minimal effective concentration ([1]; iPSC-EC, top concentration 100.00 µM, read-out: endo.cyto.24hr POD): 100 µM | minimal effective concentration ([1]; iPSC-EC, top concentration 100.00 µM, read-out: endo.mito.24hr POD): 100 µM | minimal effective concentration ([1]; iPSC-EC, top concentration 100.00 µM, read-out: endo.mitoint.24hr POD): 100 µM | minimal effective concentration ([1]; iPSC-EC, top concentration 100.00 µM, read-out: endo.nma.24hr POD): 100 µM | minimal effective concentration ([1]; iPSC-EC, top concentration 100.00 µM, read-out: endo.tc.24hrs POD): 100 µM

O=S(=O)(O)Oc1cc(Cl)c(-c2cc(Cl)ccc2Cl)cc1Cl [4-PCB 52 sulfate]
minimal effective concentration (HUVECs; tube formation mtl, read-out: POD huvec.mtl.18hr): 14.6 µM | minimal effective concentration (HUVECs; tube formation tlps, read-out: POD huvec.tlps.18hr): 10.1 µM | minimal effective concentration (HUVECs; tube formation tta, read-out: POD huvec.tta.18hr): 100 µM | minimal effective concentration (HUVECs; tube formation ttl, read-out: POD huvec.ttl.18hr): 100 µM | minimal effective concentration ([1]; endothelial cells (endo), cyto, read-out: POD endo.cyto.24hr): 41.2 µM | minimal effective concentration ([1]; endothelial cells (endo), mito, read-out: POD endo.mito.24hr): 41.2 µM | minimal effective concentration ([1]; endothelial cells (endo), mitoint, read-out: POD endo.mitoint.24hr): 100 µM | minimal effective concentration ([1]; endothelial cells (endo), nma, read-out: POD endo.nma.24hr): 100 µM | minimal effective concentration ([1]; endothelial cells (endo), tc, read-out: POD endo.tc.24hr): 50.3 µM
